Assay results published in publication PMC9833666, “Designing and identifying β-hairpin peptide macrocycles with antibiotic potential” (Science Advances, 2023).
Bridge positions count the residues as written; N and C are the ends. Peptide text beside a SMILES is read from it.

Test system: Escherichia coli W3110
Format: cell-based
Conditions: for Ec W3110 MIC MH: E. coli W3110, MH medium; for Ec W3110 MIC RPMI: E. coli W3110, RPMI medium

CC[C@H](C)[C@@H]1NC(=O)[C@H](CCCNC(=N)N)NC(=O)[C@H](C(C)C)NC(=O)[C@@H](N)CSSC[C@@H](C(=O)O)NC(=O)[C@H](C(C)C)NC(=O)[C@H](CCC(N)=O)NC(=O)[C@H](CC(C)C)NC(=O)[C@H]([C@@H](C)O)NC(=O)[C@H](C(C)C)NC(=O)[C@H](CCCCN)NC(=O)[C@H](C(C)C)NC(=O)[C@H](CCCNC(=N)N)NC(=O)[C@H](CCCNC(=N)N)NC(=O)[C@H](CCCNC(=N)N)NC(=O)[C@H](CCCNC(=N)N)NC(=O)[C@H](CC(N)=O)NC(=O)[C@H](CC(N)=O)NC(=O)[C@H](CC(C)C)NC(=O)[C@H](CCCNC(=N)N)NC1=O [SySA-80] (H-CVRIRLNNRRRRVKVTLQVC-OH; disulfide 1-20; N-terminus and C-terminus assumed)
Ec W3110 MIC MH: 16 µg/mL
Ec W3110 MIC RPMI: 16 µg/mL
W3110 MIC MH: 16 µg/mL
W3110 MIC RPMI: 16 µg/mL

CC[C@H](C)[C@@H]1NC(=O)[C@H](CCCCN)NC(=O)[C@H](CC(C)C)NC(=O)CNC(=O)[C@H](CCCNC(=N)N)NC(=O)[C@H](CCCNC(=N)N)NC(=O)[C@H](CCCNC(=N)N)NC(=O)[C@H](CC(N)=O)NC(=O)[C@H](CC(N)=O)NC(=O)[C@H](CC(C)C)NC(=O)[C@H](CCCNC(=N)N)NC(=O)[C@H]([C@@H](C)CC)NC(=O)[C@H](CCCNC(=N)N)NC(=O)[C@H](C(C)C)NC(=O)[C@@H](N)CSSC[C@@H](C(=O)O)NC(=O)[C@H](C(C)C)NC(=O)[C@H](CCC(N)=O)NC(=O)[C@H](CC(C)C)NC(=O)[C@H](CO)NC1=O [SySA-82] (H-CVRIRLNNRRRGLKISLQVC-OH; disulfide 1-20; N-terminus and C-terminus assumed)
Ec W3110 MIC MH: 64 µg/mL
Ec W3110 MIC RPMI: 8 µg/mL
W3110 MIC MH: 64 µg/mL
W3110 MIC RPMI: 8 µg/mL

CC[C@H](C)[C@@H]1NC(=O)[C@H](CCCCN)NC(=O)[C@H](CC(C)C)NC(=O)CNC(=O)CNC(=O)[C@H](CCCNC(=N)N)NC(=O)[C@H](CCCNC(=N)N)NC(=O)[C@H](CC(=O)O)NC(=O)[C@H](CC(=O)O)NC(=O)[C@H](C(C)C)NC(=O)[C@H](CCCNC(=N)N)NC(=O)[C@H](C(C)C)NC(=O)[C@H](CCCNC(=N)N)NC(=O)[C@H](C(C)C)NC(=O)[C@@H](N)CSSC[C@@H](C(=O)O)NC(=O)[C@H](C(C)C)NC(=O)[C@H](CCC(N)=O)NC(=O)[C@H](CC(C)C)NC(=O)[C@H](CO)NC1=O [SyRA-12] (H-CVRVRVDDRRGGLKISLQVC-OH; disulfide 1-20)
W3110 MIC: >256 µg/mL

CC[C@H](C)[C@@H]1NC(=O)[C@H](CCCNC(=N)N)NC(=O)[C@H](C(C)C)NC(=O)[C@H](CCCNC(=N)N)NC(=O)[C@H](CO)NC(=O)CNC(=O)CNC(=O)[C@H](CC(N)=O)NC(=O)[C@H](CC(N)=O)NC(=O)[C@H](C(C)C)NC(=O)[C@H](CCCNC(=N)N)NC(=O)[C@H]([C@@H](C)CC)NC(=O)[C@H](CCCNC(=N)N)NC(=O)[C@H](CC(C)C)NC(=O)[C@@H](N)CSSC[C@@H](C(=O)O)NC(=O)[C@H](C(C)C)NC(=O)[C@H](CCC(=O)O)NC(=O)[C@H](CC(C)C)NC(=O)[C@H](CO)NC1=O [SyRA-10] (H-CLRIRVNNGGSRVRISLEVC-OH; disulfide 1-20)
W3110 MIC: >256 µg/mL

CC[C@H](C)[C@@H]1NC(=O)[C@H](CCCNC(=N)N)NC(=O)[C@H](C(C)C)NC(=O)CNC(=O)[C@H](CCCNC(=N)N)NC(=O)CNC(=O)CNC(=O)[C@H](CC(N)=O)NC(=O)[C@H](CC(=O)O)NC(=O)[C@H](CC(C)C)NC(=O)[C@H](CCCNC(=N)N)NC(=O)[C@H]([C@@H](C)CC)NC(=O)[C@H]([C@@H](C)O)NC(=O)[C@H](CC(C)C)NC(=O)[C@@H](N)CSSC[C@@H](C(=O)O)NC(=O)[C@H](C(C)C)NC(=O)[C@H](CCC(N)=O)NC(=O)[C@H](CC(C)C)NC(=O)[C@H](CO)NC1=O [SyRA-5] (H-CLTIRLDNGGRGVRISLQVC-OH; disulfide 1-20)
W3110 MIC: >256 µg/mL

CC(C)C[C@@H]1NC(=O)[C@H](CCCNC(=N)N)NC(=O)[C@H](C(C)C)NC(=O)[C@H](CCCNC(=N)N)NC(=O)[C@H](CC(C)C)NC(=O)[C@@H](N)CSSC[C@@H](C(=O)O)NC(=O)[C@H](C(C)C)NC(=O)[C@H](CCC(N)=O)NC(=O)[C@H](C(C)C)NC(=O)[C@H](CO)NC(=O)[C@H](C(C)C)NC(=O)[C@H](CCCCN)NC(=O)[C@H](C(C)C)NC(=O)CNC(=O)[C@H](CCCNC(=N)N)NC(=O)[C@H](CCCNC(=N)N)NC(=O)[C@H](CCCNC(=N)N)NC(=O)[C@H](CC(N)=O)NC(=O)[C@H](CC(N)=O)NC1=O [SySA-25] (H-CLRVRLNNRRRGVKVSVQVC-OH; disulfide 1-20; N-terminus and C-terminus assumed)
Ec W3110 MIC MH: 64 µg/mL
Ec W3110 MIC RPMI: 8 µg/mL
W3110 MIC MH: 64 µg/mL
W3110 MIC RPMI: 8 µg/mL

CC[C@H](C)[C@@H]1NC(=O)[C@H](CCCCN)NC(=O)[C@H](C(C)C)NC(=O)[C@H](CCCNC(=N)N)NC(=O)[C@H](CO)NC(=O)[C@H](CCCNC(=N)N)NC(=O)[C@H](CCCNC(=N)N)NC(=O)[C@H](CC(N)=O)NC(=O)[C@H](CC(=O)O)NC(=O)[C@H](C(C)C)NC(=O)[C@H](CCCNC(=N)N)NC(=O)[C@H]([C@@H](C)CC)NC(=O)[C@H]([C@@H](C)O)NC(=O)[C@H](CC(C)C)NC(=O)[C@@H](N)CSSC[C@@H](C(=O)O)NC(=O)[C@H](C(C)C)NC(=O)[C@H](CCC(=O)O)NC(=O)[C@H](CC(C)C)NC(=O)[C@H]([C@@H](C)O)NC1=O [SyRA-4] (H-CLTIRVDNRRSRVKITLEVC-OH; disulfide 1-20)
W3110 MIC: >256 µg/mL

CC[C@H](C)[C@@H]1NC(=O)[C@H](CC(=O)O)NC(=O)[C@H](C(C)C)NC(=O)[C@H](CCCCN)NC(=O)[C@H]([C@@H](C)CC)NC(=O)[C@H](CCCNC(=N)N)NC(=O)[C@@H](N)CSSC[C@@H](C(=O)O)NC(=O)[C@H](CCC(=O)O)NC(=O)[C@H](CC(C)C)NC(=O)[C@H](CCC(N)=O)NC(=O)[C@H](CC(C)C)NC(=O)[C@H](CCCNC(=N)N)NC(=O)[C@H](C(C)C)NC(=O)[C@H](CCCNC(=N)N)NC(=O)CNC(=O)[C@H](CCCNC(=N)N)NC(=O)[C@H](CCCNC(=N)N)NC(=O)[C@H](CC(=O)O)NC(=O)[C@H](CC(=O)O)NC1=O [SyRC-7] (H-CRIKVDIDDRRGRVRLQLEC-OH; disulfide 1-20)
W3110 MIC: >256 µg/mL

CC[C@H](C)[C@@H]1NC(=O)[C@H](CCCNC(=N)N)NC(=O)[C@H](C(C)C)NC(=O)[C@@H](N)CSSC[C@@H](C(=O)O)NC(=O)[C@H](C(C)C)NC(=O)[C@H](CCC(N)=O)NC(=O)[C@H](CC(C)C)NC(=O)[C@H]([C@@H](C)O)NC(=O)[C@H](C(C)C)NC(=O)[C@H](CCCCN)NC(=O)[C@H](C(C)C)NC(=O)[C@H](CCCNC(=N)N)NC(=O)[C@H](CCCNC(=N)N)NC(=O)CNC(=O)CNC(=O)[C@H](CC(N)=O)NC(=O)[C@H](CC(N)=O)NC(=O)[C@H](CC(C)C)NC(=O)[C@H](CCCNC(=N)N)NC1=O [SySA-53] (H-CVRIRLNNGGRRVKVTLQVC-OH; disulfide 1-20; N-terminus and C-terminus assumed)
Ec W3110 MIC MH: 32 µg/mL
Ec W3110 MIC RPMI: 32 µg/mL
W3110 MIC MH: 32 µg/mL
W3110 MIC RPMI: 32 µg/mL

CC[C@H](C)[C@@H]1NC(=O)[C@H](CCCCN)NC(=O)[C@H](C(C)C)NC(=O)CNC(=O)[C@H](CCCNC(=N)N)NC(=O)[C@H](CCCNC(=N)N)NC(=O)[C@H](CCCNC(=N)N)NC(=O)[C@H](CC(=O)O)NC(=O)[C@H](CC(N)=O)NC(=O)[C@H](CC(C)C)NC(=O)[C@H](CCCNC(=N)N)NC(=O)[C@H]([C@@H](C)CC)NC(=O)[C@H]([C@@H](C)O)NC(=O)[C@H](C(C)C)NC(=O)[C@@H](N)CSSC[C@@H](C(=O)O)NC(=O)[C@H](C(C)C)NC(=O)[C@H](CCC(=O)O)NC(=O)[C@H](C(C)C)NC(=O)[C@H](CO)NC1=O [SyRA-7] (H-CVTIRLNDRRRGVKISVEVC-OH; disulfide 1-20)
W3110 MIC: >256 µg/mL

CC[C@H](C)[C@@H]1NC(=O)[C@H](CCCNC(=N)N)NC(=O)[C@H](C(C)C)NC(=O)[C@H](CCCNC(=N)N)NC(=O)[C@@H](N)CSSC[C@@H](C(=O)O)NC(=O)[C@H](CCC(=O)O)NC(=O)[C@H](C(C)C)NC(=O)[C@H](CCC(N)=O)NC(=O)[C@H](CC(C)C)NC(=O)[C@H](CCCCN)NC(=O)[C@H](CC(C)C)NC(=O)[C@H](CCCNC(=N)N)NC(=O)CNC(=O)[C@H](CO)NC(=O)[C@H](CCCNC(=N)N)NC(=O)[C@H](CC(N)=O)NC(=O)[C@H](CC(N)=O)NC(=O)[C@H](C(C)C)NC(=O)[C@H](CC(N)=O)NC1=O [SyRC-14] (H-CRVRINVNNRSGRLKLQVEC-OH; disulfide 1-20)
W3110 MIC: >256 µg/mL

CC[C@H](C)[C@@H]1NC(=O)[C@H]([C@@H](C)O)NC(=O)[C@H](C(C)C)NC(=O)[C@@H](N)CSSC[C@@H](C(=O)O)NC(=O)[C@H](C(C)C)NC(=O)[C@H](CCC(=O)O)NC(=O)[C@H](C(C)C)NC(=O)[C@H]([C@@H](C)O)NC(=O)[C@H](C(C)C)NC(=O)[C@H](CCCCN)NC(=O)[C@H](C(C)C)NC(=O)CNC(=O)CNC(=O)[C@H](CCCNC(=N)N)NC(=O)CNC(=O)[C@H](CC(N)=O)NC(=O)[C@H](CC(=O)O)NC(=O)[C@H](C(C)C)NC(=O)[C@H](CCCNC(=N)N)NC1=O [SyRA-8] (H-CVTIRVDNGRGGVKVTVEVC-OH; disulfide 1-20)
W3110 MIC: >256 µg/mL

CC[C@H](C)[C@@H]1NC(=O)[C@H](CC(N)=O)NC(=O)[C@H]([C@@H](C)CC)NC(=O)[C@H](CCCCN)NC(=O)[C@H](C(C)C)NC(=O)[C@H](CCCNC(=N)N)NC(=O)[C@@H](N)CSSC[C@@H](C(=O)O)NC(=O)[C@H](CCC(=O)O)NC(=O)[C@H](C(C)C)NC(=O)[C@H](CCC(=O)O)NC(=O)[C@H](CC(C)C)NC(=O)[C@H](CCCNC(=N)N)NC(=O)[C@H](C(C)C)NC(=O)[C@H](CCCNC(=N)N)NC(=O)[C@H](CCCNC(=N)N)NC(=O)[C@H](CO)NC(=O)CNC(=O)[C@H](CC(N)=O)NC(=O)[C@H](CC(=O)O)NC1=O [SyRC-2] (H-CRVKINIDNGSRRVRLEVEC-OH; disulfide 1-20)
W3110 MIC: >256 µg/mL

CC[C@H](C)[C@@H]1NC(=O)[C@H](CCCNC(=N)N)NC(=O)[C@H](C(C)C)NC(=O)CNC(=O)[C@H](CO)NC(=O)CNC(=O)CNC(=O)[C@H](CC(=O)O)NC(=O)[C@H](CC(N)=O)NC(=O)[C@H](CC(C)C)NC(=O)[C@H](CCCNC(=N)N)NC(=O)[C@H](C(C)C)NC(=O)[C@H](CCCNC(=N)N)NC(=O)[C@H](C(C)C)NC(=O)[C@@H](N)CSSC[C@@H](C(=O)O)NC(=O)[C@H](C(C)C)NC(=O)[C@H](CCC(N)=O)NC(=O)[C@H](C(C)C)NC(=O)[C@H](CO)NC1=O [SyRA-6] (H-CVRVRLNDGGSGVRISVQVC-OH; disulfide 1-20)
W3110 MIC: >256 µg/mL
